The source made the active and inactive calls.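 How the source made its calls: active means parasite count per well reduced by over 3 SD from the mean, with host cell number above 80% of untreated; inactive means the rest.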
Test system: L. donovani amastigotes in THP-1 macrophages, DAPI imaging, 72 h
Experiment: antileishmanial activity in infected macrophages – imaging, THP-1 host macrophages, single concentration (AID 977614);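 further: signal is the parasite per host cell ratio from DAPI stained kinetoplasts and nuclei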

SMILES	AC50
O=C(NC[C@@H]1N[C@@H](CO)[C@@H]1c1ccc(-c2ccccc2F)cc1)c1ccccn1	> 10 µM (inactive)
COCC(=O)N(C)C[C@H]1[C@@H](c2ccccc2)[C@H](CO)N1C(=O)Cc1ccncc1	> 10 µM (inactive)
O=C(c1ccccn1)N1C[C@@H]2[C@H](c3ccccc31)[C@H](CO)N2C(=O)Nc1ccccc1Cl	> 10 µM (inactive)
CC(C)N(C[C@@H]1[C@@H](c2ccccc2)[C@H](CO)N1S(C)(=O)=O)C(=O)CN(C)C	> 10 µM (inactive)
O=C(CC1CC1)NC[C@H]1N[C@H](CO)[C@@H]1c1ccc(-c2ccc(F)cc2)cc1	> 10 µM (inactive)
C[C@@H]1CN([C@H](C)CO)C(=O)CCCn2nncc2CO[C@H]1CN(C)C(=O)Nc1ccc2c(c1)OCCO2	> 10 µM (inactive)
C[C@H](CO)N1C[C@H](C)[C@@H](CN(C)C(=O)c2ccc(N3CCN(C)CC3)cc2)OCc2cnnn2CCCC1=O	> 10 µM (inactive)
COc1ccc(NC(=O)N2C[C@@H]3[C@H](c4ccccc42)[C@H](CO)N3Cc2ccccn2)cc1	> 10 µM (inactive)
Cc1noc(C)c1S(=O)(=O)N(C)C[C@@H]1OCc2cn(nn2)CCCC(=O)N([C@H](C)CO)C[C@H]1C	> 10 µM (inactive)
COCCNC[C@@H]1[C@H](c2ccccc2)[C@H](CO)N1c1nc(C)c(C)s1	> 10 µM (inactive)
CCCNC(=O)N1C[C@@H]2[C@H](c3ccccc31)[C@H](CO)N2C(=O)CN1CCOCC1	> 10 µM (inactive)
C[C@@H]1CN([C@@H](C)CO)C(=O)CCCn2nncc2CO[C@@H]1CN(C)S(=O)(=O)c1ccccc1C#N	> 10 µM (inactive)
O=S(=O)(c1ccc(F)cc1)N1C[C@@H]2[C@H](c3ccccc31)[C@@H](CO)N2Cc1ccccc1Cl	> 10 µM (inactive)
CCC(=O)N1[C@H](CO)[C@@H](c2ccccc2)[C@@H]1CN(C)C(=O)CN1CCOCC1	> 10 µM (inactive)
CNC[C@@H]1OCc2cn(nn2)CCCC(=O)N([C@@H](C)CO)C[C@H]1C	> 10 µM (inactive)
CN(C)CC(=O)N1C[C@H]2[C@@H](c3ccccc31)[C@@H](CO)N2C(=O)c1ccccn1	> 10 µM (inactive)
Cc1cccc(S(=O)(=O)N2C[C@@H]3[C@H](c4ccccc42)[C@@H](CO)N3C(=O)c2ccccc2)c1	> 10 µM (inactive)
COCCNC[C@H]1[C@@H](c2ccccc2)[C@@H](CO)N1c1nc(C)c(C)s1	> 10 µM (inactive)
CCC(=O)N1C[C@H]2[C@@H](c3ccccc31)[C@@H](CO)N2C(=O)CC1CC1	> 10 µM (inactive)
O=C(Nc1ccc(F)cc1)N1C[C@@H]2[C@H](c3ccccc31)[C@H](CO)N2C(=O)c1ccncc1	> 10 µM (inactive)
CCC(=O)N1[C@H](CN(CC)C(=O)c2cccc(F)c2)[C@H](c2ccccc2)[C@@H]1CO	> 10 µM (inactive)
COc1ccc(C(=O)N2C[C@@H]3[C@H](c4ccccc42)[C@@H](CO)N3C(=O)NC(C)C)cc1	> 10 µM (inactive)
C[C@@H]1CN([C@@H](C)CO)C(=O)CCCn2cc(nn2)CO[C@H]1CN(C)C(=O)c1ccc(N2CCN(C)CC2)cc1	> 10 µM (inactive)
CCC(=O)N1[C@@H]2CN(S(=O)(=O)c3ccc(F)cc3)c3ccccc3[C@@H]2[C@@H]1CO	> 10 µM (inactive)
CNC[C@@H]1OCc2cnnn2CCCC(=O)N([C@H](C)CO)C[C@@H]1C	> 10 µM (inactive)
O=C(NC[C@@H]1[C@@H](c2ccccc2)[C@H](CO)N1C(=O)C1CCC1)NC1CCCC1	> 10 µM (inactive)

SMILES	AC50
COCC(=O)N1[C@H](CO)[C@H]2c3ccccc3NC[C@H]21	> 10 µM (inactive)
COc1ccc(NC(=O)N2C[C@@H]3[C@H](c4ccccc42)[C@@H](CO)N3Cc2ccccn2)cc1	> 10 µM (inactive)
C[C@H](CO)N1C[C@H](C)[C@@H](CN(C)Cc2ccc(C(=O)Nc3ccccc3N)cc2)OCc2cnnn2CCCC1=O	> 10 µM (inactive)
C[C@@H]1CN([C@@H](C)CO)C(=O)CCCn2nncc2CO[C@@H]1CN(C)S(=O)(=O)c1ccc(Oc2ccccc2)nc1	> 10 µM (inactive)
COCC(=O)NC[C@@H]1[C@@H](c2ccccc2)[C@H](CO)N1C(=O)c1ccccc1	> 10 µM (inactive)
C[C@H]1CN([C@@H](C)CO)C(=O)CCCn2nncc2CO[C@H]1CN(C)C(=O)Nc1cccc(Oc2ccccn2)c1	> 10 µM (inactive)
Cc1noc(C)c1S(=O)(=O)N(C)C[C@H]1OCc2cn(nn2)CCCC(=O)N([C@H](C)CO)C[C@H]1C	> 10 µM (inactive)
C[C@@H]1CN([C@H](C)CO)C(=O)CCCn2cc(nn2)CO[C@@H]1CN(C)C(=O)Nc1cccc(C(F)(F)F)c1	> 10 µM (inactive)
COCC(=O)N1[C@@H](CO)[C@@H]2c3ccccc3N(C(=O)c3cccnc3)C[C@@H]21	> 10 µM (inactive)
C[C@H](CO)N1C[C@H](C)[C@H](CN(C)Cc2cccc(C(F)(F)F)c2)OCc2cnnn2CCCC1=O	> 10 µM (inactive)
COc1ccccc1S(=O)(=O)N(C)C[C@@H]1OCc2cn(nn2)CCCC(=O)N([C@H](C)CO)C[C@@H]1C	> 10 µM (inactive)
C[C@@H]1CN([C@H](C)CO)C(=O)CCCn2nncc2CO[C@H]1CN(C)Cc1cccc(C(F)(F)F)c1	> 10 µM (inactive)
C[C@H](CO)N1C[C@H](C)[C@H](CN(C)Cc2ccc3c(c2)OCCN3C)OCc2cnnn2CCCC1=O	> 10 µM (inactive)
C[C@H](CO)N1C[C@H](C)[C@H](CN(C)C(=O)Nc2ccc3c(c2)OCCO3)OCc2cnnn2CCCC1=O	> 10 µM (inactive)
CN(C[C@H]1[C@@H](c2ccccc2)[C@@H](CO)N1C(=O)C1CCC1)C(=O)c1ccncc1	> 10 µM (inactive)
O=C(C1CCOCC1)N1C[C@H]2[C@@H](c3ccccc31)[C@H](CO)N2C(=O)Nc1ccccc1F	> 10 µM (inactive)
O=S(=O)(NC[C@H]1[C@H](c2ccccc2)[C@H](CO)N1CC1CC1)c1ccccc1	> 10 µM (inactive)
C[C@H](CO)N1C[C@H](C)[C@@H](CN(C)S(=O)(=O)c2cn(C)cn2)OCc2cnnn2CCCC1=O	> 10 µM (inactive)
O=C(c1ccccc1F)N1C[C@@H]2[C@H](c3ccccc31)[C@H](CO)N2Cc1ccc2c(c1)OCO2	> 10 µM (inactive)
CCC(=O)N1[C@H](CN(CC)C(=O)c2cccc(F)c2)[C@@H](c2ccccc2)[C@@H]1CO	> 10 µM (inactive)
C[C@@H]1CN([C@@H](C)CO)C(=O)CCCn2nncc2CO[C@H]1CN(C)C(=O)Nc1ccc(-c2cccs2)cc1	> 10 µM (inactive)
O=C(Nc1cccc(Cl)c1)N1C[C@H]2[C@@H](c3ccccc31)[C@H](CO)N2Cc1cccnc1	> 10 µM (inactive)
O=C(C1CCOCC1)N1C[C@H]2[C@@H](c3ccccc31)[C@H](CO)N2C(=O)Cc1ccccn1	> 10 µM (inactive)
O=C(c1ccncc1)N1C[C@@H]2[C@H](c3ccccc31)[C@@H](CO)N2C(=O)CN1CCOCC1	> 10 µM (inactive)
COCCN(C[C@H]1[C@H](c2ccccc2)[C@@H](CO)N1C(=O)C1CC1)C(C)=O	> 10 µM (inactive)
O=C(NC[C@@H]1N[C@@H](CO)[C@@H]1c1ccccc1)c1ccccc1F	> 10 µM (inactive)

SMILES	AC50
CCN(C[C@@H]1[C@@H](c2ccc(C3=CCCCC3)cc2)[C@@H](CO)N1CC1CC1)C(C)=O	> 10 µM (inactive)
CCS(=O)(=O)N1[C@H](CO)[C@H](c2ccccc2)[C@@H]1CN(C)Cc1ccccn1	> 10 µM (inactive)
C/C=C/c1ccc([C@@H]2[C@@H](CO)N(C(C)=O)[C@@H]2CNC(=O)c2ccccc2)cc1	> 10 µM (inactive)
C[C@@H]1CN([C@H](C)CO)C(=O)CCCn2nncc2CO[C@H]1CN(C)C(=O)Nc1cccc(Oc2ccccn2)c1	> 10 µM (inactive)
O=C(Cc1cccnc1)N1[C@@H](CO)[C@H](c2ccccc2)[C@@H]1CNCC1CCC1	> 10 µM (inactive)
O=C(NC[C@@H]1[C@H](c2ccccc2)[C@@H](CO)N1C(=O)Cc1ccncc1)C1CCC1	> 10 µM (inactive)
CCC(=O)N1C[C@@H]2[C@H](c3ccccc31)[C@@H](CO)N2C(=O)CC1CC1	> 10 µM (inactive)
O=C(Nc1ccc(F)cc1)N1C[C@@H]2[C@H](c3ccccc31)[C@H](CO)N2Cc1ccccc1Cl	> 10 µM (inactive)
C[C@@H]1CN([C@H](C)CO)C(=O)CCCn2nncc2CO[C@H]1CN(C)Cc1ccccc1C(=O)O	> 10 µM (inactive)
C[C@H](CO)N1C[C@H](C)[C@H](CN(C)S(=O)(=O)c2ccc(Oc3ccccc3)nc2)OCc2cnnn2CCCC1=O	> 10 µM (inactive)
CCC(=O)N1[C@@H](CO)[C@@H](c2ccccc2)[C@@H]1CN(CC)C(=O)c1cccc(F)c1	> 10 µM (inactive)
C[C@@H]1CN([C@H](C)CO)C(=O)CCCn2nncc2CO[C@H]1CN(C)Cc1ccc2c(c1)OCCN2C	> 10 µM (inactive)
CC(=O)N1[C@@H](CO)[C@H](c2ccccc2)[C@@H]1CN(CC(C)C)C(=O)c1ccccn1	> 10 µM (inactive)
CN1[C@@H]2CN(C(=O)C3CCCCC3)c3ccccc3[C@@H]2[C@@H]1CO	> 10 µM (inactive)
O=C(CN1CCOCC1)N1[C@H](CO)[C@@H]2c3ccccc3NC[C@@H]21	> 10 µM (inactive)
CCN(C[C@@H]1N[C@@H](CO)[C@H]1c1ccc(-c2ccc(F)cc2)cc1)C(=O)CN(C)C	> 10 µM (inactive)
C[C@H](CO)N1C[C@H](C)[C@@H](CN(C)C(=O)Nc2ccccc2C(F)(F)F)OCc2cnnn2CCCC1=O	> 10 µM (inactive)
CN1[C@@H](CO)[C@@H]2c3ccccc3N(C(=O)Nc3cc(F)ccc3F)C[C@@H]21	> 10 µM (inactive)
O=C(Cc1ccccn1)N1[C@@H]2CNc3ccccc3[C@@H]2[C@@H]1CO	> 10 µM (inactive)
COc1ccccc1S(=O)(=O)N(C)C[C@@H]1OCc2cn(nn2)CCCC(=O)N([C@@H](C)CO)C[C@H]1C	> 10 µM (inactive)
O=C(NC[C@@H]1[C@H](c2ccccc2)[C@@H](CO)N1Cc1cccnc1)c1ccccn1	> 10 µM (inactive)
Cc1noc(C)c1NC(=O)N(C)C[C@H]1OCc2cn(nn2)CCCC(=O)N([C@H](C)CO)C[C@@H]1C	> 10 µM (inactive)
CC(=O)N1[C@H](CN(C)S(=O)(=O)c2ccccc2)[C@H](c2ccccc2)[C@@H]1CO	> 10 µM (inactive)
C[C@@H]1CN([C@@H](C)CO)C(=O)CCCn2nncc2CO[C@H]1CN(C)C(=O)c1ccc(N2CCN(C)CC2)cc1	> 10 µM (inactive)

— PubChem BioAssay AID977614 (Broad Institute, 2014)
